Each structure is given as a SMILES string.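 All cell lines were grown in 96-well plates and treated with compound for 48 hours. GI50 marks 50% less growth.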 Calls of active or inactive are those of the source. Rule as the data show it: active = GI50 up to about 1.1 µM and inactive = higher. Positions of bridges follow the written chain, without caps; N, C: chain ends. Residues, ends and D or L forms follow the SMILES beside them.

Holding throughout (assay): growth of human tumour cells (NCI), 48 h
Test [1] has as its system U-251.
Test [2] has as its system HT-29.
In test [3] the test system is SNB-19.
Test [4] relates to MDA-MB-435.
Test [5] concerns HCT-116.
The subject of test [6] is SK-MEL-28.
Test [7] deals with UACC-257.
Test [8] relates to RXF 393.
Test [9] concerns K562.
For test [10], the system named is ACHN.
Test [11] has as its system SW-620.
In test [12] the test system is EKVX.
The subject of test [13] is OVCAR-8.
For test [14], the system named is IGROV-1.
Test [15] concerns SK-OV-3.
The test system of test [16] is NCI-H23.
The test system of test [17] is RPMI-8226.
The subject of test [18] is SF-539.
In test [19] the test system is OVCAR-4.
Test [20] relates to A498.

Consider `c1ccc(Cc2cc(-c3ccccc3)[nH]n2)cc1`, for which the GI50 was 13.2 µM (inactive) in test [1]; 11.2 µM (inactive) in [2]; 23.2 µM (inactive) in [3]; 10.3 µM (inactive) in [4]; 25.9 µM (inactive) in test [5]; 11.6 µM (inactive) in test [6]. Also, the GI50 in [7] is 13.3 µM (inactive); in test [8], 10.3 µM (inactive); in test [9] it was 13 µM (inactive); in test [10], 15.8 µM (inactive); in test [11], 14.6 µM (inactive); in [12] it was 10.6 µM (inactive). For the same compound, the results for the GI50 in [13], in test [14] and in [15] were 13.5 µM (inactive), 18.1 µM (inactive) and 32.4 µM (inactive), respectively.

For `Cc1ccc(/N=C2\C(=N/c3ccc(C)cc3)N(c3ccc(C)cc3)C(=S)N2C(=O)c2ccccc2)cc1`, the GI50 in test [1], in [2], in [3], in test [4], in test [16] and in [6] was > 100 µM (inactive) in each case. Besides, the GI50 is > 10 µM (inactive) in [7]; 46.8 µM (inactive) in [8]; > 100 µM (inactive) in [9]; > 100 µM (inactive) in test [10]; > 100 µM (inactive) in test [11]; > 100 µM (inactive) in test [12]. Further, the GI50 in test [13] is > 10 µM (inactive); in test [17], > 100 µM (inactive); in test [14] it was > 100 µM (inactive); in test [18], > 100 µM (inactive); in test [15], > 100 µM (inactive).

For `Cc1ccc(SCC(CF)OC(C)n2cnc3c(Cl)nc(N)nc32)cc1` (centres undefined), the GI50 in [1] was > 100 µM (inactive); in test [2], > 100 µM (inactive); in test [3] it was > 100 µM (inactive); in test [4], 78.3 µM (inactive); in [5], 55.1 µM (inactive); in test [16], 57.4 µM (inactive). In addition, the GI50 was > 100 µM (inactive) in [6]; 19.3 µM (inactive) in [7]; 35.2 µM (inactive) in [10]; > 100 µM (inactive) in test [11]; 16 µM (inactive) in test [19]; 69.7 µM (inactive) in [13]. The GI50 in test [17] is > 100 µM (inactive); in test [14], > 100 µM (inactive); in test [18] it was > 100 µM (inactive); in test [15], 37.2 µM (inactive).

With `COC(=O)[C@H](C)NC(=O)[C@H](NS(=O)(=O)c1nc2ccccc2s1)c1ccccc1`, the GI50 was 20.5 µM (inactive) in [1]; 39.4 µM (inactive) in test [2]; 27.4 µM (inactive) in test [3]; 41 µM (inactive) in [4]; 44.3 µM (inactive) in test [5]; 36.3 µM (inactive) in [16]. Further, the GI50 is 17 µM (inactive) in [6]; 12.9 µM (inactive) in test [7]; 16.9 µM (inactive) in test [8]; 94.4 µM (inactive) in test [9]; 33.9 µM (inactive) in test [10]; 37.3 µM (inactive) in test [11]. Further, the GI50 is 47.6 µM (inactive) in test [12]; 26.2 µM (inactive) in test [19]; 16.7 µM (inactive) in [13]; 31 µM (inactive) in test [17]; 49.3 µM (inactive) in [14]; 15.6 µM (inactive) in test [18]. In addition, in test [15], the GI50 is 33.2 µM (inactive).

Consider `Cc1cc(C)c2ccc(N3CCNCC3)nc2n1`, for which the GI50 is > 100 µM (inactive) in [1]; 57.7 µM (inactive) in test [2]; > 100 µM (inactive) in test [3]; > 100 µM (inactive) in test [4]; 84.1 µM (inactive) in test [5]; > 100 µM (inactive) in [16]. Also, the GI50 in test [6], in test [7], in [9], in [10], in [11] and in test [12] was > 100 µM (inactive) in each case. Further, the GI50 in test [19], in test [13], in test [17], in test [14], in test [18] and in test [15] was > 100 µM (inactive) each time.

For `COc1ccc(-c2nc3ncccn3c2-c2ccc([S+](C)[O-])cc2)cc1` (centres undefined), the GI50 in test [1] was > 100 µM (inactive); in test [2], > 100 µM (inactive); in test [3], > 100 µM (inactive); in test [4], 15.1 µM (inactive); in test [5], > 100 µM (inactive); in test [16], > 100 µM (inactive). Moreover, the GI50 in [6], in test [7], in test [9], in [10], in test [11] and in test [19] was > 100 µM (inactive) throughout. Also, the GI50 was > 100 µM (inactive) in test [13]; > 100 µM (inactive) in test [17]; > 100 µM (inactive) in test [14]; > 100 µM (inactive) in test [18]; 45.3 µM (inactive) in test [15].

Take `CN(C)C1(C#N)CCC2(CC1)OCCO2`: the GI50 in test [1], in test [2], in test [3], in test [5], in [16] and in test [6] was > 100 µM (inactive) each time. In addition, the GI50 in test [7], in test [20], in test [8], in test [9], in test [10] and in [11] was > 100 µM (inactive) throughout. The GI50 in [12], in test [19], in test [13], in test [17], in test [14] and in [18] was > 100 µM (inactive) each time. In test [15], the GI50 is > 100 µM (inactive).

`C=Cc1cncc(C#N)c1CCc1c(C#N)cncc1C=C`: the GI50 in test [1], in [2], in test [3], in test [5], in test [16] and in [6] was > 10 µM (inactive) each time. Also, the GI50 in test [7] was > 10 µM (inactive); in test [20], > 10 µM (inactive); in [8] it was 56.5 µM (inactive); in [9], > 10 µM (inactive); in [10] it was > 10 µM (inactive); in [11] it was > 10 µM (inactive). Moreover, the GI50 was 49 µM (inactive) in test [12]; > 10 µM (inactive) in [19]; > 10 µM (inactive) in [13]; > 10 µM (inactive) in test [17]; > 10 µM (inactive) in test [14]; > 10 µM (inactive) in [18]. In test [15], the GI50 is > 10 µM (inactive).

Turning to `CCC(C)C1NC(=O)C(CC(C)C)NC(=O)C(C(C)C)NC(=O)C2CSSCC(NC1=O)C(=O)N2` (centres undefined) (cyclo(CCVLI); disulfide 1-2; configuration not given here), the GI50 in test [1] is 0.0385 µM (active); in [2] it was 0.177 µM (active); in test [3], 0.166 µM (active); in test [4], 0.194 µM (active); in test [5] it was 0.0498 µM (active); in test [16], 0.138 µM (active). In addition, the GI50 in test [6] was 0.122 µM (active); in test [7], 0.141 µM (active); in test [10], 0.458 µM (active); in test [11] it was 0.16 µM (active); in test [12] it was 0.15 µM (active); in [19] it was 0.18 µM (active). For the same compound, the GI50 in test [13] is 0.194 µM (active); in [17] it was 0.0262 µM (active); in test [14], 0.165 µM (active); in test [18] it was 0.144 µM (active).

As to `CCC1(CN(C)C)CC/C(=C\c2ccc(OC)c(OC)c2)C1=O` (centres undefined), the GI50 in [1] is > 100 µM (inactive); in test [2], 58.2 µM (inactive); in test [3], > 100 µM (inactive); in test [5], > 74.5 µM (inactive); in test [16], > 100 µM (inactive); in test [6] it was > 100 µM (inactive). Besides, the GI50 was > 100 µM (inactive) in test [7]; 88.7 µM (inactive) in [20]; > 100 µM (inactive) in test [8]; 57.4 µM (inactive) in test [9]; > 100 µM (inactive) in test [10]; > 100 µM (inactive) in test [11]. The GI50 in test [12] is > 54.6 µM (inactive); in test [19], > 100 µM (inactive); in test [13], > 100 µM (inactive); in test [17] it was 18.2 µM (inactive); in test [14], > 100 µM (inactive); in test [18], > 100 µM (inactive). In addition, the GI50 in test [15] is > 100 µM (inactive).

As to `COC(=O)C(=O)CC(=O)CCn1ncc(Cl)c(Cl)c1=O`, the GI50 in test [1] is 9.23 µM (inactive); in test [2], 11.5 µM (inactive); in test [3] it was 18.5 µM (inactive); in test [5] it was 15.1 µM (inactive); in [16], 13.2 µM (inactive); in test [6] it was 14 µM (inactive). In addition, the GI50 is 15.8 µM (inactive) in [7]; 32.8 µM (inactive) in test [20]; 20.2 µM (inactive) in [8]; 3.56 µM (inactive) in test [9]; 20.1 µM (inactive) in test [10]; 8.36 µM (inactive) in [11]. Further, the GI50 in [12] was 19.5 µM (inactive); in [19], 4.62 µM (inactive); in test [13], 13.3 µM (inactive); in [17], 12.8 µM (inactive); in test [14], 17.1 µM (inactive); in test [18], 19.6 µM (inactive). The GI50 in test [15] is 31 µM (inactive).

The values are drawn from ChEMBL document CHEMBL1201862, “PubChem BioAssay data set” (2004).
